Experimental data as given in ChEMBL document CHEMBL4251601 (Eur J Med Chem, 2018).

What was measured:
[1] = biological target: Ephrin type-B receptor 2 (Homo sapiens) (UniProt P29323); assay: Inhibition of recombinant human GST-tagged EPHB2 cytoplasmic domain (616 to 884 residues) expressed in baculovirus expression system at 0.1 uM by Z'-Lyte assay relative to control
[2] = Unbound AUC (0 to 24 hrs) in CD-1 mouse brain at 10 mg/kg, po administered as single dose by LC-MS/MS analysis; type: ADME, organism-based; conditions: in vivo
[3] = Oral bioavailability in ICR mouse at 5 mg/kg administered as single dose by LC-MS/MS analysis; type: ADME, organism-based; conditions: in vivo
[4] = Half life in Sprague-Dawley rat at 5 mg/kg, po administered as single dose by LC-MS/MS analysis; type: ADME, organism-based; conditions: in vivo
[5] = biological target: Beta-adrenergic receptor kinase 1 (Homo sapiens) (UniProt P25098); assay: Inhibition of recombinant human full length His-tagged GRK2 expressed in baculovirus expression system at 0.1 uM by Z'-Lyte assay relative to control
[6] = biological target: Protein kinase C beta type (Homo sapiens) (UniProt P05771); assay: Inhibition of PKCbeta2 (unknown origin) at 1 uM by Z'-Lyte assay relative to control
[7] = Fraction unbound in CD-1 mouse plasma at 2 uM incubated for 4 hrs by LC/MS/MS analysis based equillibriun dialysis method; type: ADME, cell-free
[8] = system: Proto-oncogene tyrosine-protein kinase receptor Ret (Homo sapiens), P07949 [V804L]; assay: Inhibition of recombinant human GST-tagged RET V804L mutant expressed in baculovirus expression system at 1 uM by Z'-Lyte assay relative to control
Chain of Proto-oncogene tyrosine-protein kinase receptor Ret (Homo sapiens), P07949 [V804L] (P07949 whole entry V804L, the tested form may be a part): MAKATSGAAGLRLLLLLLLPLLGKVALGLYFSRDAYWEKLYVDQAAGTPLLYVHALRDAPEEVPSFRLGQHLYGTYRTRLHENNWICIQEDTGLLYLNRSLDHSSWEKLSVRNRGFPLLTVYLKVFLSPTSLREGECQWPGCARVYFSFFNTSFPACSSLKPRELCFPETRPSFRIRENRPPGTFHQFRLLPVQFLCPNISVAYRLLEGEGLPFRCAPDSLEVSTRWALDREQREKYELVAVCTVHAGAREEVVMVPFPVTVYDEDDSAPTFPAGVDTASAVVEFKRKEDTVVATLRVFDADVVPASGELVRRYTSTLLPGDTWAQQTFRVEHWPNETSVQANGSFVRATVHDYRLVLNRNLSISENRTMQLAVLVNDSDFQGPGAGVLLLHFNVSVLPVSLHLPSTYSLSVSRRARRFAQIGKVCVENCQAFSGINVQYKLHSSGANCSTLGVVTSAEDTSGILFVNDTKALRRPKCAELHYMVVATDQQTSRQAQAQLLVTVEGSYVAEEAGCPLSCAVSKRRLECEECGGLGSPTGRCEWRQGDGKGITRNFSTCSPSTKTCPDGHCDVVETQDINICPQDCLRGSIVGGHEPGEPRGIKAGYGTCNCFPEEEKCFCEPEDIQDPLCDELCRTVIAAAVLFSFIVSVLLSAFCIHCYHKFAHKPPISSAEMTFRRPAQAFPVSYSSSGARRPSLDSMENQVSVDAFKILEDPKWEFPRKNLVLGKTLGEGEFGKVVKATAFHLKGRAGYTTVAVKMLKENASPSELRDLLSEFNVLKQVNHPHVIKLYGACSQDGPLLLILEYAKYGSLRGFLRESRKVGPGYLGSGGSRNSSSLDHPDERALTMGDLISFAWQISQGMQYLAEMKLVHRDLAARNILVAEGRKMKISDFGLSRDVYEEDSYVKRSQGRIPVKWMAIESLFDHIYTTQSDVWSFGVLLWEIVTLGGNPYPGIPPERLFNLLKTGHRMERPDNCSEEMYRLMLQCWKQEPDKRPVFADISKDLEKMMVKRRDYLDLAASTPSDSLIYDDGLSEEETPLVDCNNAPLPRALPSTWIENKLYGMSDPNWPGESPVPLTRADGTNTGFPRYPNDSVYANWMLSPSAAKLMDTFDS

[9] = biological target: High affinity nerve growth factor receptor (Homo sapiens) (UniProt P04629); assay: Inhibition of recombinant human His-tagged TRKA cytoplasmic domain expressed in baculovirus expression system at 0.1 uM by Z'-Lyte assay relative to control
[10] = biological target: Fibroblast growth factor receptor 1 (Homo sapiens) (UniProt P11362); assay: Inhibition of recombinant human His-tagged FGFR1 cytoplasmic domain expressed in baculovirus expression system at 1 uM by Z'-Lyte assay relative to control
Chain of Fibroblast growth factor receptor 1 (Homo sapiens) (P11362 22-822 limits assumed): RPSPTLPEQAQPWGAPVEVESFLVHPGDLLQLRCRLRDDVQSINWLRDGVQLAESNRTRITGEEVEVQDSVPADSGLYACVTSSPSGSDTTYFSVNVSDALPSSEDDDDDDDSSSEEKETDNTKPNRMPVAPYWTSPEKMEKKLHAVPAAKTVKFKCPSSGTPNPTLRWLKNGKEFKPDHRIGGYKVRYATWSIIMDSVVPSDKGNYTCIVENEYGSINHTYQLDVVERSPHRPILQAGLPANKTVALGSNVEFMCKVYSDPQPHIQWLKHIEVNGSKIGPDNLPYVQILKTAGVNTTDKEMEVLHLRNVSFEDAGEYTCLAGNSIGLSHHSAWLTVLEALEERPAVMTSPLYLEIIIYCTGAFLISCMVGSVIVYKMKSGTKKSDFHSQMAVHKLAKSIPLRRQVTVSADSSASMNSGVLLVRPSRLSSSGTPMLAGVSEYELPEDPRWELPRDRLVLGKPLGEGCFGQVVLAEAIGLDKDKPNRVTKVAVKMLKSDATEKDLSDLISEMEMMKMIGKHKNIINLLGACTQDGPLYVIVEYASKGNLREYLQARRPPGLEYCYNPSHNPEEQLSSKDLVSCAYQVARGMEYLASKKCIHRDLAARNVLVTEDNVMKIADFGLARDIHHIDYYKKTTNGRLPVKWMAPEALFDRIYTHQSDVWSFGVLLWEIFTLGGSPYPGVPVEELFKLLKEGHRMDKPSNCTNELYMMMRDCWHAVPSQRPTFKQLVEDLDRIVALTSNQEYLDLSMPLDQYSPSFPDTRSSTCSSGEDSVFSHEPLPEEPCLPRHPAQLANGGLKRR

[11] = biological target: Epidermal growth factor receptor (Homo sapiens) (UniProt P00533); assay: Inhibition of recombinant human GST-tagged EGFR cytoplasmic domain expressed in baculovirus expression system at 0.1 uM by TR-FRET assay relative to control
Chain of Epidermal growth factor receptor (Homo sapiens) (P00533 whole entry, the tested form may be a part): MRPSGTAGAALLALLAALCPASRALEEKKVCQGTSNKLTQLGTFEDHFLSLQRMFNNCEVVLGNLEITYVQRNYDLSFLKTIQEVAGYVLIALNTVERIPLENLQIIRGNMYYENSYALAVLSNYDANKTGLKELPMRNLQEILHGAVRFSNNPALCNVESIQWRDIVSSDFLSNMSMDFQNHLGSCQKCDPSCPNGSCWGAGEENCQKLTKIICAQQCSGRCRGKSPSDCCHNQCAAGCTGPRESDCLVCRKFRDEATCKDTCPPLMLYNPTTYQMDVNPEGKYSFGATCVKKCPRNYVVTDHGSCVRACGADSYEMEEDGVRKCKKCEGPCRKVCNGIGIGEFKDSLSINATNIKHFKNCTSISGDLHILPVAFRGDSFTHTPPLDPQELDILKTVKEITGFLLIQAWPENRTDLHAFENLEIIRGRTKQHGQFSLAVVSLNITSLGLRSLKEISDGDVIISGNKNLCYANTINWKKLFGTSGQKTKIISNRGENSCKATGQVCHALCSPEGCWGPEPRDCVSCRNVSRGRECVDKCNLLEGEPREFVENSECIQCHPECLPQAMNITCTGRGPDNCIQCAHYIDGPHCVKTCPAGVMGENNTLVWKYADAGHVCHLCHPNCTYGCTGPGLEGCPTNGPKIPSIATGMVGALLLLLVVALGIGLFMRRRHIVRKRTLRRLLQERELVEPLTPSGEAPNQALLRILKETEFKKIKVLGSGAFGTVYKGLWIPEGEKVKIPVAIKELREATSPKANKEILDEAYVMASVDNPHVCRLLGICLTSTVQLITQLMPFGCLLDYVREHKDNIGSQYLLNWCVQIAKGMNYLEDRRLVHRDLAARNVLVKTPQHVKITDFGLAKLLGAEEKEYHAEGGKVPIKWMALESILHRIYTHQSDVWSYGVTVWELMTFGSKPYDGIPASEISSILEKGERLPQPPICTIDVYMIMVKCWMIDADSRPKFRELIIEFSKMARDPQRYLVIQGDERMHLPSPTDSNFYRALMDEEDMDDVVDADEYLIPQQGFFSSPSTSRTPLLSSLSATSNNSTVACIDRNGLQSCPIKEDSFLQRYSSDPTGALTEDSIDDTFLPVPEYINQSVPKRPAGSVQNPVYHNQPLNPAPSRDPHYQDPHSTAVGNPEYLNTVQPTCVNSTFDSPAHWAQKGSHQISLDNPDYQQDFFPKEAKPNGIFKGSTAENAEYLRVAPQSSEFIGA

[12] = biological target: Serine/threonine-protein kinase 26 (Homo sapiens) (UniProt Q9P289); assay: Inhibition of recombinant human full length GST-tagged MST4 expressed in baculovirus expression system at 1 uM by Z'-Lyte assay relative to control
Chain of Serine/threonine-protein kinase 26 (Homo sapiens) (Q9P289 2-416 limits assumed): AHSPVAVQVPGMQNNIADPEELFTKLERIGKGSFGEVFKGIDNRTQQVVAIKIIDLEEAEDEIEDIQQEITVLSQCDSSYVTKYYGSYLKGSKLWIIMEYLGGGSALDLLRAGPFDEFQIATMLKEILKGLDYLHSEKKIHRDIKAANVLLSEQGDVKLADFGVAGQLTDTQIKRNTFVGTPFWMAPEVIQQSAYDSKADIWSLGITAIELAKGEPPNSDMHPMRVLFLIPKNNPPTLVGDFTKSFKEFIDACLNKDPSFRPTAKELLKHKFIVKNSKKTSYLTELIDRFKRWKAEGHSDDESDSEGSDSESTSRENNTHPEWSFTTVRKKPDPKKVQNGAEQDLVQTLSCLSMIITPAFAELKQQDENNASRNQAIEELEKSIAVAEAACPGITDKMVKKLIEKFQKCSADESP

[13] = biological target: ALK tyrosine kinase receptor (Homo sapiens) (UniProt Q9UM73); assay: Inhibition of recombinant N-terminal GST-tagged human ALK cytoplasmic domain (1058 to 1620 residues) expressed in baculovirus expression system at 1 uM by TR-FRET assay relative to control
[14] = Fraction unbound in CD-1 mouse brain at 2 uM incubated for 4 hrs by LC/MS/MS analysis based equillibriun dialysis method; type: ADME, tissue-based
[15] = biological target: Tyrosine-protein kinase Lck (Homo sapiens) (UniProt P06239); assay: Inhibition of recombinant human full length His-tagged LCK expressed in baculovirus expression system at 1 uM by Z'-Lyte assay relative to control
[16] = biological target: Fibroblast growth factor receptor 1 (Homo sapiens) (UniProt P11362); assay: Inhibition of recombinant human His-tagged FGFR1 cytoplasmic domain expressed in baculovirus expression system at 0.1 uM by Z'-Lyte assay relative to control
[17] = biological target: Leucine-rich repeat serine/threonine-protein kinase 2 (Homo sapiens) (UniProt Q5S007); assay: Inhibition of recombinant human GST-tagged LRRK2 (970 to 2527 residues) expressed in baculovirus expression system at 1 uM by TR-FRET assay relative to control
[18] = 1-octanol-phosphate buffer distribution coefficient, log D of the compound at pH 7.4 after 1 hr by LC-MS/MS method; type: physicochemical
[19] = biological target: Aurora kinase A (Homo sapiens) (UniProt O14965); assay: Inhibition of recombinant full length human His-tagged AURKA expressed in baculovirus expression system at 1 uM by Z'-Lyte assay relative to control
Chain of Aurora kinase A (Homo sapiens) (O14965 whole entry): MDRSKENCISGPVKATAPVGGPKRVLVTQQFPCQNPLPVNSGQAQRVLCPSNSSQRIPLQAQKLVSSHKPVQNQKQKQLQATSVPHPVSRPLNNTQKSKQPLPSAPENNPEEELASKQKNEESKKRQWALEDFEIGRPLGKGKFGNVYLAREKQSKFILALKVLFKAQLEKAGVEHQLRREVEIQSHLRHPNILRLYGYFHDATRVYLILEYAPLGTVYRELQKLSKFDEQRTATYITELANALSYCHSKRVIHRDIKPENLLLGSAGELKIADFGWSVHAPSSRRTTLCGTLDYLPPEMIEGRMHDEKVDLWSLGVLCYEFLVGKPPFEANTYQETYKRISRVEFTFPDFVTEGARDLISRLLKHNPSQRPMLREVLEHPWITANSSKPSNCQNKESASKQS

[20] = biological target: Serine/threonine-protein kinase PLK1 (Homo sapiens) (UniProt P53350); assay: Inhibition of recombinant human full length His-tagged PLK1 expressed in baculovirus expression system at 0.1 uM by Z'-Lyte assay relative to control
[21] = biological target: Phosphatidylinositol 4,5-bisphosphate 3-kinase catalytic subunit beta isoform (Homo sapiens) (UniProt P42338); assay: Inhibition of PI3K beta (unknown origin) at 0.1 uM by ADP-Glo assay relative to control
[22] = biological target: Serine/threonine-protein kinase Chk1 (Homo sapiens) (UniProt O14757); assay: Inhibition of recombinant full length human His-tagged CHK1 expressed in baculovirus expression system at 1 uM by Z'-Lyte assay relative to control
[23] = AUC (0 to 48 hrs) in CD-1 mouse plasma at 10 mg/kg, po administered as single dose by LC-MS/MS analysis; type: ADME, organism-based; parameters: time < 48 hr, dose 10 mg/kg, route oral
[24] = biological target: Epidermal growth factor receptor (Homo sapiens) (UniProt P00533); assay: Inhibition of recombinant human GST-tagged EGFR cytoplasmic domain expressed in baculovirus expression system at 1 uM by TR-FRET assay relative to control
[25] = biological target: cAMP-dependent protein kinase catalytic subunit alpha (Homo sapiens) (UniProt P17612); assay: Inhibition of recombinant human His-tagged PKA expressed in Escherichia coli at 0.1 uM by Z'-Lyte assay relative to control
[26] = system: Proto-oncogene tyrosine-protein kinase receptor Ret (Homo sapiens), P07949 [V804L]; assay: Inhibition of recombinant human GST-tagged RET V804L mutant expressed in baculovirus expression system at 0.1 uM by Z'-Lyte assay relative to control
[27] = biological target: Tyrosine-protein kinase BTK (Homo sapiens) (UniProt Q06187); assay: Inhibition of recombinant full length human His-tagged BTK expressed in baculovirus expression system at 0.1 uM by TR-FRET assay relative to control
[28] = AUC (0 to infinity) in Sprague-Dawley rat at 2 mg/kg, iv administered as single dose by LC-MS/MS analysis; type: ADME, organism-based; parameters: dose 2 mg/kg, route intravenous, time infinity; conditions: Sprague-Dawley, in vivo
[29] = system: Epidermal growth factor receptor (Homo sapiens), P00533 [UNDEFINED MUTATION]; assay: Inhibition of recombinant human EGFR d746 to 750 deletion/T790M mutant at 0.1 uM by TR-FRET assay relative to control
[30] = biological target: Protein-tyrosine kinase 6 (Homo sapiens) (UniProt Q13882); assay: Inhibition of recombinant human full length His-tagged PTK6 expressed in baculovirus expression system at 0.1 uM by TR-FRET assay relative to control

Chain of Ephrin type-B receptor 2 (Homo sapiens) (P29323 whole entry, the tested form may be a part): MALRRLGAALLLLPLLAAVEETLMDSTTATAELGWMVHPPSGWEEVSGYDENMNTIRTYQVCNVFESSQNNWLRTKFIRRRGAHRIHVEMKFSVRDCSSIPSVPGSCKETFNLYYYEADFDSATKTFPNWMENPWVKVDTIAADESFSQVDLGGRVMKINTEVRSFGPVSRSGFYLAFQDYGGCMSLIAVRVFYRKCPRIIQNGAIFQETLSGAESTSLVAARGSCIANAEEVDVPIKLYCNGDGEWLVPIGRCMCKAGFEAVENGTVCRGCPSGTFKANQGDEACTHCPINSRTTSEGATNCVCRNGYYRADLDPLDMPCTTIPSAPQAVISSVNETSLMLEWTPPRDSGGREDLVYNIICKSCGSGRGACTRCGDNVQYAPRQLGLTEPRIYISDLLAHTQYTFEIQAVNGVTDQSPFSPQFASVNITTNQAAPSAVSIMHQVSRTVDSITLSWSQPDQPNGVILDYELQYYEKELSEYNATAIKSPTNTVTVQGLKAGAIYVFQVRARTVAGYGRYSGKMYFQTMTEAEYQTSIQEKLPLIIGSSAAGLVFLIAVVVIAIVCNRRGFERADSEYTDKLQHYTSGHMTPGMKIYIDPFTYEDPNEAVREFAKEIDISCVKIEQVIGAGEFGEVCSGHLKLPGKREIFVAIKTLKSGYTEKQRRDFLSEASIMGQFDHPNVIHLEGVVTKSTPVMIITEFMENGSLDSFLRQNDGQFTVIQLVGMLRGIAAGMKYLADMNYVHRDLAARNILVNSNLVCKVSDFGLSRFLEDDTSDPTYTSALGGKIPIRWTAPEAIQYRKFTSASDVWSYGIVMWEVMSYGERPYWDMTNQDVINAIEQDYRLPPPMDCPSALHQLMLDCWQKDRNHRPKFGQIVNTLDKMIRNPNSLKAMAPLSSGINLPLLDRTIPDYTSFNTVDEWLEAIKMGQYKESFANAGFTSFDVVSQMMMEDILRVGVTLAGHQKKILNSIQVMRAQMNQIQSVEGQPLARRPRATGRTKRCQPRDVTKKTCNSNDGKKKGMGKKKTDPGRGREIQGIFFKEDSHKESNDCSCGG

## CC1=Nc2c(F)cc(-c3nc(Nc4ccc(C5CCN(C)CC5)cn4)ncc3F)cc2C12CCCC2 [CROZBACICLIB]
[1]
  inhibition: -8%
[2]
  fAUC: 14.87 ng·h/g
[3]
  bioavailability: 75%
[4]
  half-life: 8.5 h
[5]
  inhibition: -2%
[6]
  inhibition: 52%
[7]
  Fu: 0.7%
[8]
  inhibition: 16%
[9]
  inhibition: 2%
[10]
  inhibition: 13%
[11]
  inhibition: -5%
[12]
  inhibition: -1%
[13]
  inhibition: 89%
[14]
  Fu: 0.04%
[15]
  inhibition: 13%
[16]
  inhibition: -8%
[17]
  inhibition: 34%
[18]
  logD at 1 h: 3.49
[19]
  inhibition: 6%
[20]
  inhibition: -3%
[21]
  inhibition: 0%
[22]
  inhibition: 0%
[23]
  AUC(0-t) at 48 h: 9060 ng·h/mL
[24]
  inhibition: 31%
[25]
  inhibition: 0%
[26]
  inhibition: 2%
[27]
  inhibition: -9%
[28]
  AUC(0-inf): 959 ng·h/mL
[29]
  inhibition: 26%
[30]
  inhibition: 14%
